How the values were obtained:
[1] = tested on: melanocyte-keratinocyte co-cultures; assay: Fontana-Masson silver stain for melanin in melanocyte-keratinocyte co-cultures; assay type: cell-based, human; conditions: 50 micromolar, 72 h (FIG. 7)
Description: Primary neonatal normal human keratinocytes (NHKs) (Invitrogen, Life Technologies, Grand Island, N.Y.) were seeded at a density of 5×10^5 cells/well into 4-well collagen coated chamber slides (Fisher Scientific, Waltham, Mass.). Cells were maintained in 1 ml of serum-free keratinocyte growth medium (KGM) (Keratinocyte-SFM, Invitrogen) and incubated for 48 h in 5% CO2 incubator. The complete KGM was prepared by adding KGM Singlequots (Lonza). Darkly pigmented human neonatal epidermal melanocytes (HEM-DP) (Invitrogen) were seeded over keratinocytes at 2.5×10^5 cells/well and incubated for 24 h at 37° C. The KGM was replaced with 1 ml of melanocyte growth medium (MGM) (Invitrogen), and the co-cultures were incubated for another 48 hours. The co-cultures were treated with the inhibitors at indicated concentrations in a final volume of 20 microliter/well in triplicate for 72 h. The cells were gently washed with 1× phosphate buffered saline (PBS) and fixed in 4% Paraformaldehyde (PFA) for 20 minutes at room temperature.
Silver staining for melanin was performed according to the instructions provided with the Fontana-Masson staining kit (American MasterTech, Lodi, Calif.). Cells grown in collagen-coated chamber slides were fixed in 4% PFA and rinsed with water for 5 minutes to remove traces of PBS. Slides were then placed in ammonical silver solution followed by incubation in solutions of 0.1% gold chloride, 5% sodium thiosulfate, rinsed in running tap water to remove the staining solution, and dehydrated through 3 changes of fresh absolute alcohol. Cleared slides were rinsed through 3 changes of fresh xylene and coverslips were applied with mounting medium.

[2] = tested on: human melanocyte-keratinocyte co-cultures; assay: Melanin assay (solubilized melanin, spectrophotometry) in melanocyte-keratinocyte co-cultures; assay type: cell-based; conditions: for Minimal concentration for >80% inhibition of melanin content: single agents, 72 h, data from FIG. 8A
Description: Cells were plated on 24-well plates at 2×10^5 cells/well and treated with various inhibitors in triplicate. Media were replaced with fresh inhibitor-containing media every 24 h. After 72 h, cells were lysed with cell lysis buffer (Invitrogen) containing protease inhibitor cocktail and PMSF (phenylmethyl sulfonyl fluoride) and incubated for 20 minutes on ice. […] From the same samples, the supernatants were saved for measurement of dopa oxidase activity and the pellets were evaluated for melanin content.
Melanin was extracted following a previously described procedure (Ni-Komatsu, et al., 2005, Pigment Cell Res 18(6),447-453). […] The melaninextracts (100 μl) were transferred to a 96-well plate and total melanin content quantitated with a M5 Spectramax plate reader (490 nm).
Dose response curves were assessed for Bliss Additivity and synergism as described (Fitzgerald et al., 2006, Nat Chem Biol 2:458-466; Ritz, C. & Streibig, J. C. (2005) Bioassay Analysis using R. J. Statist. Software, Vol 12, Issue 5). For comparisons of melanin content and tyrosinase/dopa oxidase activity in treated vs. untreated cultures, P-values were determined by the Welch Two Sample t-test.

[3] = molecular target: EBL/SNA (Sambucus nigra, UniProt Q41358); conditions: Shibuya et al, 1987; Kaku et al, 2007; cited from earlier work
EBL/SNA, sequence (Q41358 309-570 limits assumed): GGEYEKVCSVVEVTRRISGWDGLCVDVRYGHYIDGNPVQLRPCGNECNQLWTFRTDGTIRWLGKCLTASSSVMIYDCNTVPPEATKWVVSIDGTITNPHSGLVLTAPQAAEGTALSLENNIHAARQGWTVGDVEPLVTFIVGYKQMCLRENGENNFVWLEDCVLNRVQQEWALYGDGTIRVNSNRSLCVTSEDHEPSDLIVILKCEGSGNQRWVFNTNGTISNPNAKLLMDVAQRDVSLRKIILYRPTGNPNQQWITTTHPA
EBL/SNA, sequence (Q41358 29-289 partner limits assumed): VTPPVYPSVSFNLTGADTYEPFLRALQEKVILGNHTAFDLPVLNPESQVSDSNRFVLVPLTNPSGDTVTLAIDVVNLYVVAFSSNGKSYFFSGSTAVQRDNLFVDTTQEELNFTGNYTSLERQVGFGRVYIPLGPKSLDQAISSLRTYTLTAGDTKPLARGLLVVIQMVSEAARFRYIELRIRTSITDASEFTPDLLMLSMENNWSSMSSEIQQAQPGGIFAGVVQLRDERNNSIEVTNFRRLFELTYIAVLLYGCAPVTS

[4] = tested on: human melanocyte-keratinocyte co-cultures; assay: EBL/SNA lectin staining of melanocyte-keratinocyte co-cultures; assay type: cell-based; conditions: L-cytidine 25 micromolar, 72 h, vs untreated (FIG. 5)
Description: Primary neonatal normal human keratinocytes (NHKs) (Invitrogen, Life Technologies, Grand Island, N.Y.) were seeded at a density of 5×10^5 cells/well into 4-well collagen coated chamber slides (Fisher Scientific, Waltham, Mass.). Cells were maintained in 1 ml of serum-free keratinocyte growth medium (KGM) (Keratinocyte-SFM, Invitrogen) and incubated for 48 h in 5% CO2 incubator. The complete KGM was prepared by adding KGM Singlequots (Lonza). Darkly pigmented human neonatal epidermal melanocytes (HEM-DP) (Invitrogen) were seeded over keratinocytes at 2.5×10^5 cells/well and incubated for 24 h at 37° C. The KGM was replaced with 1 ml of melanocyte growth medium (MGM) (Invitrogen), and the co-cultures were incubated for another 48 hours. The co-cultures were treated with the inhibitors at indicated concentrations in a final volume of 20 microliter/well in triplicate for 72 h. The cells were gently washed with 1× phosphate buffered saline (PBS) and fixed in 4% Paraformaldehyde (PFA) for 20 minutes at room temperature. […] The slides were air dried and mounted on cover slips and the images were captured in tiff format using fluorescence microscope (Nikon) and analyzed.

Compound | melanin content (Fontana-Masson silver staining) [1] | melanin content compared to untreated cultures ([2]; 50 micromolar, 72 h (FIG. 6)) | Minimal concentration for >80% inhibition of melanin content [2] [µM] | inhibition of EBL-mediated precipitation of glycophorin [3] | EBL staining [4]
Neu5Ac(α2,3)Gal(β1-4)Glc [3′-SL] | reduced melanin content | strongest reduction of the three | 30 | poor inhibitor | 
Neu5Ac(α2,6)Gal(β1-4)Glc [6′-SL] | reduced melanin content |  | 30 | strong inhibitor | 
Nc1ccn([C@@H]2O[C@H](CO)[C@@H](O)[C@H]2O)c(=O)n1 [cytidine] | reduced melanin content |  |  |  | markedly reduced
